Experimental data as given in US12628827B2, “Isoxazoline compounds and their use as pest control agents” (PI INDUSTRIES LIMITED, priority 2020, dated 2026).

How the values were obtained:
Format in all cases: in vivo
Tetranychus urticae = Tetranychus urticae leaf dip method; details: foliar, French bean leaves, third instar nymphs, 72 h after release, dead + moribund vs untreated control, read-out: percent mortality
Description: (§1) The leaf dip method was used for testing, wherein the required quantity of the compound was weighed and dissolved in a tube containing solvent solution. The tube was put on a vortex at 2000 rpm for 90 min for proper mixing, then, diluted with 0.01% Triton-X solution to the desired test concentration. French bean leaves were dipped in the compound solution for 10 seconds, shade dried for 20 min and then placed, with the abaxial side of the leaf up, in single cells of a bio-assay tray containing 4 mL of a solidified 1% agar-agar solution. Known numbers of third instar nymphs were released into the cell with the treated leaf and the cell was covered with a perforated lid for better aeration. The trays were kept in a plant growth chamber at a temperature of 25° C. and a relative humidity of 70%. Observations on dead, moribund and alive nymphs were recorded 72 h after the release. Percent mortality was calculated by combining dead and moribund nymphs and comparing the result with the one of the untreated control. The compounds 1 2 26 38 40 46 47 48 and 49 recorded ≥70 percent mortality @ 300 PPM.

Plutella xylostella = Plutella xylostella leaf dip method; details: foliar, cabbage leaves, second instar larvae, 72 h after release, dead + moribund vs untreated control, read-out: per cent mortality
Description: The leaf dip method was used for testing, wherein the required quantity of the compound was weighed and dissolved in a tube containing solvent solution. The tube was put on a vortex at 2000 rpm for 90 min for proper mixing, then, diluted with a 0.01% Triton-X solution to the desired test concentration. Cabbage leaves were dipped in the compound solution for 10 seconds, shade dried for 20 min and then transferred into the cells of bioassay trays. A single second instar larva was released into each cell and the tray was covered with a lid. The bio-assay trays were then kept under laboratory conditions at a temperature of 25° C. and a relative humidity of 70%. Observations on dead, moribund and alive larvae were recorded 72 h after the release. Percent mortality was calculated by combining dead and moribund larvae and comparing the result to the one of the untreated control. The compounds, […]

[1] = test system: Amrasca biguttulla biguttulla; assay: Amrasca biguttulla biguttulla leaf dip method; details: Solanum melongena, foliar, brinjal leaves, second instar nymphs, 72 h after release, dead + moribund vs untreated control, read-out: percent mortality
Description: as §1, with “concentration. Brinjal” for “concentration. French bean”, “of second” for “of third”, “compounds 1,” for “compounds 1”, “2 and” for “2 26 38”, “40” for “40 46 47 48 and 49”

Scirtothrips dorsalis = Scirtothrips dorsalis leaf dip method; details: foliar, capsicum leaves, second instar nymphs, 72 h after release, dead + moribund vs untreated control, read-out: percent mortality
Description: as §1, with “concentration. Capsicum” for “concentration. French bean”, “of second” for “of third”, “compounds 1,” for “compounds 1”, “2 and” for “2 26 38”, “40” for “40 46 47 48 and 49”

Compound	mortality at 300 ppm (Tetranychus urticae) [%]	mortality at 300 ppm (Plutella xylostella) [%]	mortality at 300 ppm [1] [%]	mortality at 300 ppm (Scirtothrips dorsalis) [%]
Cc1cc(C2=NOC(c3cc(Cl)cc(Cl)c3)(C(F)(F)F)C2)ccc1C(=O)N(C)c1nc(C(C)(F)F)n(C)n1 (stereo not shown) [Compound 49, 4-(5-(3,5-dichlorophenyl)-5-(trifluoromethyl)-4,5-dihydroisoxazol-3-yl)-N-(5-(1,1-difluoroethyl)-1-methyl-1H-1,2,4-triazol-3-yl)-N,2-dimethylbenzamide]	≥ 70	–	–	–
Cc1cc(C2=NOC(c3cc(Cl)c(F)c(Cl)c3)(C(F)(F)F)C2)ccc1C(=O)N(C)c1nc(C(C)(F)F)n(C)n1 (stereo not shown) [Compound 46, 4-(5-(3,5-dichloro-4-fluorophenyl)-5-(trifluoromethyl)-4,5-dihydroisoxazol-3-yl)-N-(5-(1,1-difluoroethyl)-1-methyl-1H-1,2,4-triazol-3-yl)-N,2-dimethylbenzamide]	≥ 70	–	–	–
Cc1cc(C2=NOC(c3cc(Cl)cc(Cl)c3)(C(F)(F)F)C2)ccc1C(=O)N(CC(F)(F)F)c1nc(CCC(F)(F)F)n(CC(F)(F)F)n1 (stereo not shown) [Compound 83, 4-(5-(3,5-dichlorophenyl)-5-(trifluoromethyl)-4,5-dihydroisoxazol-3-yl)-2-methyl-N-(2,2,2-trifluoroethyl)-N-(1-(2,2,2-trifluoroethyl)-5-(3,3,3-trifluoropropyl)-1H-1,2,4-triazol-3-yl)benzamide]	–	≥ 70	–	–
CCc1nc(NC(=O)c2ccc(C3=NOC(c4cc(Cl)cc(Cl)c4)(C(F)(F)F)C3)cc2C)nn1CC (stereo not shown) [Compound 38, 4-(5-(3,5-dichlorophenyl)-5-(trifluoromethyl)-4,5-dihydroisoxazol-3-yl)-N-(1,5-diethyl-1H-1,2,4-triazol-3-yl)-2-methylbenzamide]	≥ 70	–	–	–
Cc1cc(C2=NOC(c3cc(Cl)c(F)c(Cl)c3)(C(F)(F)F)C2)ccc1C(=O)N(C)c1nc(C(F)(F)F)n(C)n1 (stereo not shown) [Compound 40, 4-(5-(3,5-dichloro-4-fluorophenyl)-5-(trifluoromethyl)-4,5-dihydroisoxazol-3-yl)-N,2-dimethyl-N-(1-methyl-5-(trifluoromethyl)-1H-1,2,4-triazol-3-yl)benzamide]	≥ 70	–	≥ 70	≥ 70
Cc1cc(C2=NOC(c3cc(Cl)cc(Cl)c3)(C(F)(F)F)C2)ccc1C(=O)N(CC(F)F)c1nc(CCC(F)(F)F)n(CC(F)F)n1 (stereo not shown) [Compound 87, 4-(5-(3,5-dichlorophenyl)-5-(trifluoromethyl)-4,5-dihydroisoxazol-3-yl)-N-(2,2-difluoroethyl)-N-(1-(2,2-difluoroethyl)-5-(3,3,3-trifluoropropyl)-1H-1,2,4-triazol-3-yl)-2-methylbenzamide]	–	≥ 70	–	–
Cc1cc(C2=NOC(c3cc(Cl)cc(Cl)c3)(C(F)(F)F)C2)ccc1C(=O)Nc1nc(C(F)(F)F)n(C)n1 (stereo not shown) [Compound 2, 4-(5-(3,5-dichlorophenyl)-5-(trifluoromethyl)-4,5-dihydroisoxazol-3-yl)-2-methyl-N-(1-methyl-5-(trifluoromethyl)-1H-1,2,4-triazol-3-yl)benzamide]	≥ 70	–	≥ 70	≥ 70
Cc1cc(C2=NOC(c3cc(Cl)cc(Cl)c3)(C(F)(F)F)C2)ccc1C(=O)Nc1nc(C(C)(F)F)n(C)n1 (stereo not shown) [Compound 48, 4-(5-(3,5-dichlorophenyl)-5-(trifluoromethyl)-4,5-dihydroisoxazol-3-yl)-N-(5-(1,1-difluoroethyl)-1-methyl-1H-1,2,4-triazol-3-yl)-2-methylbenzamide]	≥ 70	–	–	–
Cc1cc(C2=NOC(c3cc(Cl)c(F)c(Cl)c3)(C(F)(F)F)C2)ccc1C(=O)Nc1nc(C(F)(F)F)n(C)n1 (stereo not shown) [Compound 1, 4-(5-(3,5-dichloro-4-fluorophenyl)-5-(trifluoromethyl)-4,5-dihydroisoxazol-3-yl)-2-methyl-N-(1-methyl-5-(trifluoromethyl)-1H-1,2,4-triazol-3-yl)benzamide]	≥ 70	–	≥ 70	≥ 70
Cc1cc(C2=NOC(c3cc(Cl)c(F)c(Cl)c3)(C(F)(F)F)C2)ccc1C(=O)Nc1nc(C(C)(F)F)n(C)n1 (stereo not shown) [Compound 47, 4-(5-(3,5-dichloro-4-fluorophenyl)-5-(trifluoromethyl)-4,5-dihydroisoxazol-3-yl)-N-(5-(1,1-difluoroethyl)-1-methyl-1H-1,2,4-triazol-3-yl)-2-methylbenzamide]	≥ 70	–	–	–
Cc1cc(C2=NOC(c3cc(Cl)c(F)c(Cl)c3)(C(F)(F)F)C2)ccc1C(=O)N(CC(F)(F)F)c1nc(CCC(F)(F)F)n(CC(F)(F)F)n1 (stereo not shown) [Compound 111, 4-(5-(3,5-dichloro-4-fluorophenyl)-5-(trifluoromethyl)-4,5-dihydroisoxazol-3-yl)-2-methyl-N-(2,2,2-trifluoroethyl)-N-(1-(2,2,2-trifluoroethyl)-5-(3,3,3-trifluoropropyl)-1H-1,2,4-triazol-3-yl)benzamide]	–	≥ 70	–	–
Cc1cc(C2=NOC(c3cc(Cl)c(F)c(Cl)c3)(C(F)(F)F)C2)ccc1C(=O)Nc1nc(C(C)C)n(C)n1 (stereo not shown) [Compound 26, 4-(5-(3,5-dichloro-4-fluorophenyl)-5-(trifluoromethyl)-4,5-dihydroisoxazol-3-yl)-N-(5-isopropyl-1-methyl-1H-1,2,4-triazol-3-yl)-2-methylbenzamide]	≥ 70	–	–	–
Cc1cc(C2=NOC(c3cc(Cl)c(F)c(Cl)c3)(C(F)(F)F)C2)ccc1C(=O)N(CC(F)(F)F)c1nc(C(C)C)n(CC(F)(F)F)n1 (stereo not shown) [Compound 31, 4-(5-(3,5-dichloro-4-fluorophenyl)-5-(trifluoromethyl)-4,5-dihydroisoxazol-3-yl)-N-(5-isopropyl-1-(2,2,2-trifluoroethyl)-1H-1,2,4-triazol-3-yl)-2-methyl-N-(2,2,2-trifluoroethyl)benzamide]	–	≥ 70	–	–
